Results taken from publication PMC6540222, “Small Molecule Inhibitors of KDM5 Histone Demethylases Increase the Radiosensitivity of Breast Cancer Cells Overexpressing JARID1B” (Molecules, 2019).
Where two headings read alike, the source gives them in different places.

Key:
MCF-7 cells [1] = experiment: COMET assay (DNA damage); type: cell-based, human; details: MCF-7, sham-irradiated, 3 μM
Procedure: To test if the cytotoxic effects of KDM5 inhibitors on MCF-7 cells were related to an increase of DNA damage accumulation, we collected cells treated with the three KDM5 inhibitors or DMSO-treated control cells after one hour from irradiation with 3 Gy of ionizing radiation (or sham-irradiation). We then performed COMET assays to assess DNA damage.
The COMET assay was performed using the OxiSelect™ 96-Well Comet Assay Kit (Cell Biolabs, Inc., San Diego, CA, USA) following the manufacturer’s instruction manual (https://www.cellbiolabs.com/sites/default/files/STA-355-comet-assay-kit.pdf).

HeLa cells = tested on: HeLa cells; parameters: method as in PMID 24489688; details: without affecting methylation of other lysins; cited from earlier work
[2] = tested on: H3K4me3 levels in MCF-7 cells; experiment: Western blotting of H3K4me3 levels in bulk chromatin; type: cell-based, human; details: MCF-7 bulk chromatin, 1 μM, 10 μM and 30 μM, 24 h, vs DMSO
Procedure: (§1) Histone isolation was performed according to acid extraction of histones protocol of Shechter and colleagues. Histone concentration was determined by running 5 μL of samples and known concentrations of commercially available purified calf thymus histones (from Sigma Aldrich Cat. #000000010223565001) on a SDS-PAGE gel. The gel is stained with Coomassie blue G 250 (BIO-RAD Cat. #161-0786) for 1 hour at room temperature and then destained in distilled water. The gel image is acquired with ChemiDoc XRS+ Imaging System (Bio-Rad, Hercules, CA, USA) and the volumes of bands of the samples are compared to standard concentrations of calf thymus histone.
(§2) Proteins were resolved on a 12% (histones) or 5% (JARID1B) denaturing polyacrylamide gel, using either 4 μg of histone preparation or 40 μg of cell lysate. After electrophoresis, proteins were transferred on a nitrocellulose membrane (Protran™ […] NC, # 10600002, GE Healthcare (Amersham™), Chicago, IL, USA) via wet transfer method using a Bio-Rad tank. Transfer efficiency was verified via ponceau staining (#P7767, Sigma-Aldrich). Filters were blocked with either milk (#70166, Sigma-Aldrich) or bovine serum albumin (#A3069, Sigma-Aldrich) and then hybridized over night at 4 °C in gentle rotation with the following antibodies: rabbit anti-H3K4me3 (1:1000, #39915, Active Motif, RRID:AB_2687512); rabbit-anti-H3K27me3 (1:1000, #9733, Cell Signaling Technology, RRID:AB_2616029); rabbit-anti- H3K9pan-methylated (1:1000, #4473, RRID:AB_10544693); rabbit-anti-H3 ([…], Cat#1791, ABCAM, RRID:AB_302613); rabbit anti-H2AX (1:1000, Cat#7631, Cell Signaling Technology, RRID:AB_10860771), rabbit anti-Phospho-H2AX (1:1000, Cat#9718, Cell Signaling Technology, RRID:AB_2118009), rabbit anti-JARID1B (1:50, Cell Signaling Technology, Cat#3273 RRID: AB_1264191). Goat-anti-Rabbit Horseradish Peroxidase conjugated (1:10,000, #31460, Thermo Fisher Scientific, Waltham, MA, USA RRID:AB_228341) was used as secondary antibody for 1 hour hybridization at room temperature. Blots were scanned and analyzed with a ChemiDoc XRS+ Imaging System (Bio-Rad). The volumes of each band of protein was acquired using Bio-Rad’s ImageLab software by means of volume tools using global quantification. The signal for each protein was normalized to the housekeeping protein and ratios with average control values were determined. For histones as loading control was used either total histone H3 detected by a specific antibody or histone H1 levels by staining the upper part of the gel properly cut before protein transfer on nitrocellulose membrane.

MCF-7 cells [3] = experiment: RNA-seq differential gene expression; type: cell-based, human; details: MCF-7 treated with RS3195 10 μM
KDM5 enzymes [4] = details: cited from earlier work
[5] = tested on: H3K27me3 levels in MCF-7 cells; experiment: Western blotting of H3K27me3 levels; type: cell-based, human
Procedure: as §1
(§3) Proteins were resolved on a 12% (histones) or 5% (JARID1B) denaturing polyacrylamide gel, using either 4 μg of histone preparation or 40 μg of cell lysate. […] Blots were scanned and analyzed with a ChemiDoc XRS+ Imaging System (Bio-Rad). The volumes of each band of protein was acquired using Bio-Rad’s ImageLab software by means of volume tools using global quantification. The signal for each protein was normalized to the housekeeping protein and ratios with average control values were determined. For histones as loading control was used either total histone H3 detected by a specific antibody or histone H1 levels by staining the upper part of the gel properly cut before protein transfer on nitrocellulose membrane.

[6] = tested on: γ-H2AX levels in MCF-7 cells; experiment: Western blotting of H2AX phosphorylation after irradiation; type: cell-based, human; details: RS5033 10 μM, KDOAM-25 0.03 μM
Procedure: as §2

KDM5 enzymes [7] = experiment: Enzymatic inhibition assay (Epigenase JARID Demethylase Activity/Inhibition Assay Kit, fluorometric); type: biochemical; details: in vitro, toward KDM5 enzymes; This work
Procedure: Inhibition by RS5033 (IC50) was determined by the Epigenase™ JARID Demethylase Activity/Inhibition Assay Kit (Fluorometric) (#P-3083-48 Epigentek, Farmingdale, NY, USA) which is a complete set of optimized reagents, designed for an easy and fast fluorometric measurement of JARID activity or inhibition. The antibody-based, immune-specific method directly detects JARID-converted demethylated products, rather than by- products, in a 96 stripwell microplate format.

[8] = tested on: pan-methyl-H3K9 levels in MCF-7 cells; experiment: Western blotting of pan-methyl-H3K9 levels; type: cell-based, human; details: MCF-7, 24 h, three concentrations (1, 10, 30 μM)
Procedure: as §1, §3

## CCOC(=O)c1cccn1C(=O)c1cccc(NS(=O)(=O)c2ccc(OC)cc2)c1 [RS3195]
MCF-7 cells [1]
  cells with comet tail, sham-irradiated (intrinsic genotoxicity): strong effect
HeLa cells
  H3K4 demethylation in HeLa cells: decrease H3K4 demethylation
[2]
  H3K4me3 levels: slight increase
MCF-7 cells [3]; gene AHRR
  log2FoldChange AHRR: 2.438
MCF-7 cells [3]; gene CYP1A1
  log2FoldChange CYP1A1: 7.446
MCF-7 cells [3]; gene CYP1B1
  log2FoldChange CYP1B1: 3.42
MCF-7 cells [3]; gene RPS3A
  log2FoldChange RPS3A: 2.088
MCF-7 cells [3]; gene TXNRD1
  log2FoldChange TXNRD1: 1.608
KDM5 enzymes [4]
  inhibition of KDM5B and KDM5D activity in vitro: selectively inhibit
KDM5 enzymes [4]; in vitro, toward KDM5 enzymes, ref Mannironi et al. [36]
  IC50: 2000 nM

## CCOC(=O)c1ccccc1C(=O)c1cccc(NS(=O)(=O)c2ccc(OC)cc2)c1 [RS5033]
[2]
  H3K4me3 levels: more remarkable and significant increase of H3K4me3
[2]; listed as RS 5033
  H3K4me3 levels: strong and significant increase
[5]; MCF-7, 24 h, three concentrations (1, 10, 30 μM)
  H3K27me3 levels: decrease
[5]; MCF-7, highest concentration of inhibitor
  decrease of H3K27 tri-methylation: about two-fold
[6]; MCF-7, 6 Gy, 4-36 h
  ɤH2AX increase normalized to the amount of H2AX: statistically significant at 4 h and 24 h
[6]; MCF-7, sham-irradiated and irradiated (6 Gy) cells
  amount of ɤH2AX: increases
KDM5 enzymes [7]
  IC50: 1000 nM
[8]
  H3K9me3 (pan-methyl-H3K9) levels: not affected
